Reference: patent US20180015170A1, “CYCLODEXTRIN-BASED POLYMERS FOR THERAPEUTIC DELIVERY” (CERULEAN PHARMA INC., priority 2012, published 2018)
“And” between values parts separate entries of the source, which are not always exact repeats. Equal entries are not always repeated.

How the values were obtained:
B16.F10 cells = test: Efficacy of CDP-docetaxel nanoparticles in a murine melanoma model; assay type: in vivo, male C57BL/6 mice
Procedure: (§1) Animals were monitored for any morbidity and adverse effect three times a week.
Tumor volume was calculated with a (width×width×length)/2 mm^3 formula.

[1] = Tolerability (body weight) in the B16.F10 murine melanoma model
Procedure: as §1
Health monitoring was conducted three times a week to evaluate lethargy, tremors, hypothermia, ataxia, hind limb paralysis etc. The criteria at which a mouse was removed from the study were >20% body weight loss or severe morbidity or hind limb paralysis.

[2] = 15 mg/kg IV, weekly schedule for 3 injections
[3] = 30 mg/kg IV, weekly schedule for 3 injections (sections 1.4, 2.3, 4.2, 5.2)

Substance	day on which the mean tumor volume endpoint (≧3000 mm^3) was reached (B16.F10 cells; mouse, in vivo)	day on which the mean tumor volume endpoint (≧3000 mm^3) was reached (B16.F10 cells; [2]) [days]	Tumor growth delay (TGD) (B16.F10 cells; [2]) [days]	increase in TGD (B16.F10 cells; [2]) [%]	Tumor growth delay (TGD) (B16.F10 cells; [3]) [days]	day on which the mean tumor volume endpoint (≧3000 mm^3) was reached (B16.F10 cells; [3]) [days]	increase in TGD (B16.F10 cells; [3]) [%]	Maximum body weight loss (%) [1, 2]	Maximum body weight loss (%) [1, 3]
CDP-2′-alanine glycolate-docetaxel [CDP-Ala Gly-DTX formulation]	43 days and 33 days and 29 days								
CDP-2′-aminoethoxyethoxy-Docetaxel [CDP-aminoethoxyethoxy-DTX formulation]		33							
CDP-dithiolethyloxy-carbonate-docetaxel [CDP-ethane-S-S-ethane-DTX formulation]		21	2	11	5	24	26	did not cause any body weight loss	did not cause any significant body weight loss
